Read-outs that look alike come from different tables or passages of the source.
Experiments:
[1] = test system: E. coli DP10 containing pBad33MevT, pHMGS or inactive controls; assay: Cell growth with increased supplementation of saturated fatty acid 16:0, baffled shake flasks, OD600; type: cell-based
[2] = test system: E. coli DP10 expressing MevT gene constructs; assay: Fatty acid supplementation of growth inhibited cells, 96-well plates, OD; type: cell-based; settings: 100 μg/ml fatty acid with 400 μg/ml Brij, defined C medium, 96-well plate, arabinose induced; for growth of MevT expressing cells (pBad33MevT): E. coli DP10 pBad33MevT; for growth of cells containing pHMGS: E. coli DP10 pHMGS
Description: Media components and chemicals were purchased from Sigma-Aldrich (St. Louis, Mo.) and Fisher Scientific (Pittsburgh, Pa.). For cloning and propagation of E. coli strains harboring the various recombinant pathways, Luria broth with Miller's modification (Sigma) was used with appropriate antibiotics for plasmid selection and 0.06% glucose for the repression of PBAD and PLAC promoter systems. DL-mevalonate used for media supplementation was prepared by mixing 1 volume of 2 M DL-mevalonic acid lactone (Sigma-Aldrich) with 1.02 volumes of 2 M KOH and incubating at 37° C. for 30 min. Campos et al. (2001) Biochem J 353, 59-67. […] Enzymes for molecular biology were purchased from New England Biolabs (Beverly, Mass.) and Invitrogen. E. coli strains TOP 10 and DH10B, both from Invitrogen, were used for cloning and plasmid construction.
The optical density of samples taken from cultures in baffled flasks was measured using a UV-Spectrophotometer (Beckman), while the OD600 of cultures in 96-well microtiter plates was measured using a microtiter plate reader (SpectraMax, Molecular Devices).
E. coli DP10 cells harboring pBad33, pBad33MevT, pMevT(C159A), pHMGS, or pHMGSR were incubated and induced in 96-well plates in fully defined C medium containing 50 μg/ml chloramphenicol (see material and methods) with supplemental cis-Δ^9-18:1, 16:0, cis-Δ^9-16:1, or a equal mass mixture of 16:0 and cis-Δ^9-16:1. […] Overnight starter cultures were used to inoculate fresh C medium in a 96-well microtiter plate.

[3] = test system: E. coli strains carrying a temperature sensitive fabD allele; settings: Harder et al. 1972, 1974; cited from earlier work
[4] = test system: E. coli DH10B harboring pBad33MevT or pBad33; settings: LB with 10 g/L NaCl vs 0.5 g/L NaCl
Description: To further test if cells inhibited by the accumulation of HMG-CoA are suffering from osmotic stress, cells harboring pBad33MevT or pBad33 (the empty vector control) were incubated and induced in Luria Broth (LB) media with low (0.5 g/L) and high (10 g/L) concentrations of NaCl. […] Both culture media were supplemented with 1% (wt/vol) glycerol and 50 μg/ml chloramphenicol. Starter cultures of DH10B harboring either pBad33MevT or pBad33 were inoculated from single colonies and incubated overnight at 37° C. in LB media supplemented with 0.06% glucose (to repress the PBAD promoter) and chloramphenicol. Overnight starter cultures were diluted to an OD600 of 0.05 in either the low or high NaCl media in baffled shake flasks, incubated at 37° C. with continuous shaking and induced with the addition of 2 mM arabinose at an OD600 of approximately 0.39. The optical density of the culture was measured using a UV-Spectrophotometer (Beckman).

[5] = test system: temperature sensitive mutants of fabB; settings: Broekman and Steenbakkers 1973; cited from earlier work
[6] = test system: E. coli DH10B containing plasmids pMevT, pMBIS, and pADS; assay: Amorpha-4,11-diene production assay with mevalonate supplementation (GC-MS of dodecane overlay); type: cell-based; settings: exogenous mevalonate added, tested up to 20 mM D,L-mevalonate; vs no supplementation
Description: Amorpha-4,11-diene production from E. coli strains expressing the full heterologous mevalonate pathway and amorphadiene synthase with or […] supplementation was assayed. E. coli DH10B containing plasmids pMevT, pMBIS, and pADS (FIGS. 5A and 5B) were grown in C medium containing 3.4% glycerol, 1% Casamino acids (BD, Franklin Lakes, N.J.), micronutrients, 50 μg/ml carbenicillin, 5 μg/ml tetracycline, and 25 μg/ml chloramphenicol with varying concentrations of exogenous mevalonate. […] Prior to inoculation, an overlay of 20% (v/v) dodecane (Sigma) was added to each culture flask to trap the volatile sesquiterpene product. […]
Dodecane/ethyl acetate extracts were analyzed on a Hewlett-Packard 6890 gas chromatograph-mass spectrometer (GC/MS). […] The resolved samples were analyzed by a Hewlett-Packard model 5973 mass selective detector that monitored ions 189 and 204 m/z. […] Since pure standards of amorpha-4,11-diene are not currently available, the concentrations were quantified in terms of caryophyllene equivalents. A standard curve for caryophyllene was determined, based on a pure standard. […]
To begin improving terpenoid production from engineered E. coli, limiting steps in the engineered pathway to amorphadiene were determined, as described in U.S. Pat. No. 7,183,089, U.S. Provisional Patent Application No. 60/802,266, Pitera et al. Metab Eng 9(2): 193-207 (2007), and as follows. […]

E. coli = assay: Effect of extra-cellular mevalonate on growth of E. coli; type: cell-based; settings: high extra-cellular concentrations

Compound: CCCCCCCCCCCCCCCC(=O)O [16:0, palmitic acid (hexadecanoic acid)]
- cell growth on increasing the concentration above 100 μg/ml ([1]; 200 μg/ml vs 100 μg/ml, baffled shake flasks): no additional effect on cell growth
- cell growth of the inactive pathway controls ([1]; DP10 harboring pMevT(C159A) or pHMGS(C159A), 100 or 200 μg/ml): not affected
- growth inhibition caused by high expression of the MevT operon ([1]; E. coli DP10 pBad33MevT, 100 μg/ml with 400 μg/ml Brij, baffled shake flasks): completely alleviated the growth inhibition
- growth of cells expressing HMGS alone ([1]; E. coli DP10 pHMGS, 100 μg/ml with 400 μg/ml Brij, baffled shake flasks): only improving the growth
- growth of MevT expressing cells (pBad33MevT) [2]: improved the growth
- growth of cells containing pHMGS [2]: clear, positive effect on the growth
- growth at non-permissive temperatures [3]: shown to grow at non-permissive temperatures

Compound: [Cl-].[Na+] [NaCl]
- osmolality of the culture medium (culture medium containing NaCl at 0.5 g/L): about 125 mOsm/kg H2O
- osmolality of the culture medium (culture medium containing NaCl at 10 g/L): about 452 mOsm/kg H2O
- growth of the empty vector control strain ([4]; DH10B containing pBad33): did not significantly affect
- growth inhibition of E. coli cells expressing the MevT operon from pBad33MevT ([4]; DH10B, 2 mM arabinose): effectively alleviated the growth inhibition

Compound: CCCCCC/C=C\CCCCCCCC(=O)O [cis-Δ^9-16:1, palmitoleic acid]
- growth of MevT expressing cells (pBad33MevT) [2]: detrimental to the growth
- growth of cells containing pHMGS [2]: detrimental to the growth
- growth at non-permissive temperatures [3]: not

Compound: CCCCCCCC/C=C\CCCCCCCC(=O)O [cis-Δ^9-18:1, oleic acid]
- growth of MevT expressing cells (pBad33MevT) [2]: to a lesser extent, cis-Δ^9-18:1 improved the growth
- growth under non-permissive conditions [5]: can grow

Compound: CC(O)(CCO)CC(=O)O (stereo not drawn) [mevalonate]
- production of amorphadiene [6]: increased the production of amorphadiene
- growth of E. coli (E. coli): no significant effect on the growth

— patent publication US8114645B2 (priority 2006, dated 2012)
